Experiments:
Assay type in all cases: in vivo
[1] = system: Silverleaf Whitefly (Bemisia Argentifolii); assay: Silverleaf whitefly spray test on cotton plants; conditions: at 300 ppm; cotton plants sprayed; 3 days after treatment
Description: B.8 Silverleaf Whitefly (Bemisia Argentifolii)
(§1) The active compounds were formulated in cyclohexanone as a 10,000 ppm solution supplied in tubes. The tubes were inserted into an automated electrostatic sprayer equipped with an atomizing nozzle and they served as stock solutions for which lower dilutions were made in 50% acetone:50% water (v/v). A nonionic surfactant (Kinetic) was included in the solution at a volume of 0.01% (v/v).
Cotton plants at the cotyledon stage (one plant per pot) were sprayed by an automated electrostatic plant sprayer equipped with an atomizing spray nozzle. The plants were dried in the sprayer fume hood and then removed from the sprayer. Each pot was placed into a plastic cup and about 10 to 12 whitefly adults (approximately 3-5 days old) were introduced. The insects were collected using an aspirator and a nontoxic Tygon® tubing connected to a barrier pipette tip. The tip, containing the collected insects, was then gently inserted into the soil containing the treated plant, allowing insects to crawl out of the tip to reach the foliage for feeding. Cups were covered with a reusable screened lid. […] Mortality was assessed 3 days after treatment, compared to untreated control plants.

[2] = system: Colorado Potato Beetle (Leptinotarsa Decemlineata); assay: Colorado potato beetle test on sprayed eggplant foliage; conditions: at 10 ppm, 4 days after treatment
Method: B.13 Colorado Potato Beetle (Leptinotarsa Decemlineata)
as §1, with “(Kinetic®)” for “(Kinetic)”
Eggplants were grown 2 plants to a pot and were selected for treatment at the 1st true leaf stage. Test solutions were sprayed onto the foliage by an automated electrostatic plant sprayer equipped with an atomizing spray nozzle. The plants were dried in the sprayer fume hood and then removed from the sprayer. The treated foliage was then cut and removed from the pot and placed in a 5-inch Petri dish lined with moistened filter paper. Five beetle larvae were introduced into each Petri dish and the dish was covered by a Petri dish lid. Petri dishes were maintained in a growth room at 25° C. and 20-40% relative humidity for 4 days, avoiding direct exposure to fluorescent light (24 hour photoperiod) to prevent trapping of heat inside the dishes. Mortality and reduced feeding were assessed 4 days after treatment, compared to untreated control plants.

[3] = system: Diamond Back Moth (Plutella Xylostella); assay: Diamond back moth leaf-dip test on Chinese cabbage; conditions: foliar, mortality recorded 24, 72 and 120 hours after treatment, read-out: mortality in comparison with untreated controls
Method: B.3 Diamond Back Moth (Plutella Xylostella)
Leaves of Chinese cabbage were dipped in test solution and air-dried. Treated leaves were placed in petri dished lined with moist filter paper. Mortality was recorded 24, 72, and 120 hours after treatment.

[4] = system: tobacco budworm (Heliothis virescens); assay: Tobacco budworm microtiter plate test on insect diet with eggs; conditions: 120 h, sprayed onto insect diet, egg and larval mortality after 5 days, read-out: mortality in comparison with untreated controls
Method: B.11 Tobacco Budworm (Heliothis Virescens) I
For evaluating control of tobacco budworm (Heliothis virescens) the test unit consisted of 96-well-microtiter plates containing an insect diet and 15-25 H. virescens eggs. The compounds were formulated using a solution containing 75% v/v water and 25% v/v DMSO. Different concentrations of formulated compounds were sprayed onto the insect diet at 10 μl, using a custom built micro atomizer, at two replications.
(§2) After application, microtiter plates were incubated at about 28±1° C. and about 80±5% relative humidity for 5 days. Egg and larval mortality was then visually assessed.

[5] = system: vetch aphid (Megoura viciae); assay: Vetch aphid test on broad bean leaf disks in 24-well plates; conditions: foliar, 120 h, sprayed onto leaf disks, 5 days, read-out: mortality in comparison with untreated controls
Method: B.10 Vetch Aphid (Megoura Viciae)
For evaluating control of vetch aphid (Megoura viciae) through contact or systemic means the test unit consisted of 24-well-microtiter plates containing broad bean leaf disks.
The compounds were formulated using a solution containing 75% v/v water and 25% v/v DMSO. Different concentrations of formulated compounds were sprayed onto the leaf disks at 2.5 μl, using a custom built micro atomizer, at two replications.
After application, the leaf disks were air-dried and 5-8 adult aphids placed on the leaf disks inside the microtiter plate wells. The aphids were then allowed to suck on the treated leaf disks and incubated at about 23±1° C. and about 50±5% relative humidity for 5 days. Aphid mortality and fecundity was then visually assessed.

[6] = system: Red Spider Mite (Tetranychus Kanzawai); assay: Red spider mite spray test on potted cowpea beans; conditions: cowpea beans sprayed, after 72 h, read-out: mortality in comparison with untreated controls
Method: B.14 Red Spider Mite (Tetranychus Kanzawai)
The active compound was dissolved at the desired concentration in a mixture of 1:1 (v/v) distilled water:acetone. A surfactant (Alkamuls® EL 620) was added at the rate of 0.1% (v/v).
Potted cowpea beans of 7-10 days of age were cleaned with tap water and sprayed with 5 ml of the test solution using air driven hand atomizer. The treated plants were allowed to air dry and afterwards inculated with 20 or more mites by clipping a cassaya leaf section with known mite population. Treated plants were placed inside a holding room at about 25-27° C. and about 50-60% relative humidity.
Mortality was determined by counting the live mites 72 HAT. Percent mortality was assessed after 72 h.

[7] = system: Cowpea Aphid (Aphis Craccivora); assay: Cowpea aphid spray test on potted cowpea plants; conditions: cowpea plants sprayed, population reduction assessed after 24, 72 and 120 hours, read-out: mortality in comparison with untreated controls
Method: B.2 Cowpea Aphid (Aphis Craccivora)
Potted cowpea plants colonized with approximately 100-150 aphids of various stages were sprayed after the pest population had been recorded. Population reduction was assessed after 24, 72, and 120 hours.

[8] = system: Mediterranean fruitfly (Ceratitis capitata); assay: Mediterranean fruitfly microtiter plate test on insect diet with eggs; conditions: 120 h, sprayed onto insect diet, egg and larval mortality after 5 days, read-out: mortality in comparison with untreated controls
Method: B.5 Mediterranean Fruitfly (Ceratitis Capitata)
For evaluating control of Mediterranean fruitfly (Ceratitis capitata) the test unit consisted of microtiter plates containing an insect diet and 50-80 C. capitata eggs.
The compounds were formulated using a solution containing 75% v/v water and 25% v/v DMSO. Different concentrations of formulated compounds were sprayed onto the insect diet at 5 μl, using a custom built micro atomizer, at two replications.
as §2

[9] = system: Southern Armyworm (Spodoptera Eridania); assay: Southern armyworm spray test on lima bean plants; conditions: foliar, 96 h, lima bean foliage sprayed, 4 days after treatment, read-out: mortality in comparison with untreated controls
Method: B.9 Southern Armyworm (Spodoptera Eridania)
as §1, with “(Kinetic®)” for “(Kinetic)”
Lima bean plants (variety Sieva) were grown 2 plants to a pot and selected for treatment at the 1st true leaf stage. Test solutions were sprayed onto the foliage by an automated electrostatic plant sprayer equipped with an atomizing spray nozzle. The plants were dried in the sprayer fume hood and then removed from the sprayer. Each pot was placed into perforated plastic bags with a zip closure. About 10 to 11 armyworm larvae were placed into the bag and the bags zipped closed. Test plants were maintained in a growth room at about 25° C. and about 20-40% relative humidity for 4 days, avoiding direct exposure to fluorescent light (24 hour photoperiod) to prevent trapping of heat inside the bags. Mortality and reduced feeding was assessed 4 days after treatment, compared to untreated control plants.

[10] = system: Orchid Thrips (Dichromothrips corbetti); assay: Orchid thrips floral-immersion test; conditions: 96 h, after 4 days, read-out: mortality in comparison with untreated controls
Method: B.6 Orchid Thrips (Dichromothrips corbetti)
Dichromothrips corbettiadults used for bioassay were obtained from a colony maintained continuously under laboratory conditions. For testing purposes, the test compound was diluted to a concentration of 500 ppm (wt compound: vol diluent) in a 1:1 mixture of acetone:water (vol:vol), plus 0.01% vol/vol Kinetic® surfactant.
Thrips potency of each compound was evaluated by using a floral-immersion technique. Plastic petri dishes were used as test arenas. All petals of individual, intact or chid flowers were dipped into treatment solution and allowed to dry. Treated flowers were placed into individual petri dishes along with 10-15 adult thrips. The petri dishes were then covered with lids. All test arenas were held under continuous light and a temperature of about 28° C. for duration of the assay. After 4 days, the numbers of live thrips were counted on each flower, and along inner walls of each petri dish. The level of thrips mortality was extrapolated from pre-treatment thrips numbers.

[11] = system: boll weevil (Anthonomus grandis); assay: Boll weevil microtiter plate test on insect diet with eggs; conditions: 120 h, sprayed onto insect diet, egg and larval mortality after 5 days, read-out: mortality in comparison with untreated controls
Method: B.12 Boll Weevil (Anthonomus Grandis)
For evaluating control of boll weevil (Anthonomus grandis) the test unit consisted of 24-well-microtiter plates containing an insect diet and 20-30 A. grandis eggs.
The compounds were formulated using a solution containing 75% v/v water and 25% v/v DMSO. Different concentrations of formulated compounds were sprayed onto the insect diet at 20 μl, using a custom built micro atomizer, at two replications. After application, microtiter plates were incubated at about 23±1° C. and about 50±5% relative humidity for 5 days. Egg and larval mortality was then visually assessed.

[12] = system: green peach aphid (Myzus persicae); assay: Green peach aphid systemic test, artificial diet in 96-well plates; conditions: 72 h, 3 days, read-out: mortality in comparison with untreated controls
Description: B.4 Green Peach Aphid (Myzus Persicae)
For evaluating control of green peach aphid (Myzus persicae) through systemic means the test unit consisted of 96-well-microtiter plates containing liquid artificial diet under an artificial membrane.
The compounds were formulated using a solution containing 75% v/v water and 25% v/v DMSO. Different concentrations of formulated compounds were pipetted into the aphid diet, using a custom built pipetter, at two replications.
After application, 5-8 adult aphids were placed on the artificial membrane inside the microtiter plate wells. The aphids were then allowed to suck on the treated aphid diet and incubated at about 23±1° C. and about 50±5% relative humidity for 3 days. Aphid mortality and fecundity was then visually assessed.

O=C(NCC(F)(F)F)NN=Cc1ccc(C2=NCC(c3cc(Cl)cc(Cl)c3)(C(F)(F)F)C2)cc1Cl (racemic) [Compound 2-3]
mortality in comparison with untreated controls [1]: at least 75%

CNC(=O)NN=Cc1ccc(C2=NCC(c3cc(Cl)cc(Cl)c3)(C(F)(F)F)C2)cc1Cl (racemic) [Compound 2-4]
mortality in comparison with untreated controls [2]: at least 75%

Cc1cc(C2=NCC(c3cc(Cl)cc(Cl)c3)(C(F)(F)F)C2)ccc1/C=N/NC(=O)NCC(F)(F)F (stereo not drawn) [Compound 1-3, 1-[(E)-[4-[3-(3,5-dichlorophenyl)-3-(trifluoromethyl)-2,4-dihydropyrrol-5-yl]-2-methyl-phenyl]methyleneamino]-3-(2,2,2-trifluoroethyl)urea]
mortality at 500 ppm [3]: ≥ 75% | mortality at 2500 ppm [4]: ≥ 75% | mortality at 2500 ppm [5]: ≥ 75% | mortality at 500 ppm [6]: ≥ 75% | mortality at 500 ppm [7]: ≥ 75% | mortality at 2500 ppm [8]: ≥ 75% | mortality at 1 ppm [9]: ≥ 75% | mortality at 500 ppm [10]: ≥ 75% | mortality at 2500 ppm [11]: ≥ 75% | mortality at 2500 ppm [12]: ≥ 75%

Source: patent US8653000B2, “Imine substituted 2,4-diaryl-pyrroline derivatives as pesticides” (BASF SE, priority 2010, dated 2014)
